Measured values: patent US5283243A, “Piperidinoalkylbenzoxazine and piperidinoalkylbenzothiazine compounds, and medicaments containing them” (Kali-Chemie Pharma GmbH, priority 1990, dated 1994)

Experiments:
[1] = system: Histamine-induced anaphylactoid reaction; experiment: Inhibition of histamine-induced anaphylactoid cutaneous reaction; type: in vivo, Sprague-Dawley rats; settings: Rattus norvegicus, 1 h; rats, 2 × 10^-5 mole/kg dose per os, one hour before challenge; read-out: % inhibition of Histamine-induced anaphylactoid reaction
Method: (§1) 1. Determining Inhibition of Passive Cutaneous Anaphylaxis (PCA) and Histamine-Induced Anaphylactoid Cutaneous Reaction
(§2) The inhibition of the passive cutaneous anaphylaxis and of the anaphylactoid cutaneous reaction induced by histamine was determined as follows:
To determine the histamine-induced anaphylactoid skin reaction, the animals are injected intradermally in the flank opposite to the antiserum administration with 50 μl of a physiological saline solution containing 0.8 mg/ml histamine directly before the intravenous injection of the solution containing the ovalbumin and the blue dye.
(§3) On the day of the experiment the test substances were dissolved in distilled water which contained 1 vol. % dimethylformamide and 1 vol. % of Tween™ 20 (=polyoxyethylene (20) sorbitan monolaurate). One hour before administration of the ovalbumin challenge, each animal was orally administered 2×10^-5 mole/kg of test substance in 0.5 ml of solution. For comparison purposes a control group received only the solvent.
(§4) The edematous anaphylactic (PCA) and anaphylactoid (histamine-induced) reactions caused by the stimulation of the intravenous ovalbumin injection, which manifested themselves by edema formation, swelling and exudation of blue dye, were evaluated 30 minutes after their initiation by the intravenous ovalbumin injection. This was done by visually determining the extent to which the blue dye emerged at the sites of edema formation. The percentage inhibition of anaphylactic and anaphylactoid reactions induced by the test substances in comparison with the reactions of the control animals not treated with any test substance was determined using comparison scales.
(§5) The results obtained using compounds of formula I according to the foregoing test methods are shown in the following Table A. The example numbers given for the compounds of formula I relate to the subsequent preparative examples.

mice = experiment: Determination of minimum toxic dose; type: in vivo; settings: mouse, in vivo, 300 mg/kg, 1440 min
Method: 2. Determination of Minimum Toxic Dose
Maximum doses of 300 mg/kg of the test substance were administered orally to male mice weighing 20-25 g. The animals were observed carefully for 3 hours for toxicity symptoms. In addition, all symptoms and deaths were recorded over a period of 24 hours after administration. Associated symptoms were also observed and recorded. If death or severe toxic symptoms were observed, additional mice were administered increasingly lower doses. The lowest dose which produced death or severe toxic symptoms is given in the following Table B as the minimum toxic dose.

[2] = system: Passive cutaneous anaphylaxis (PCA); experiment: Inhibition of passive cutaneous anaphylaxis (PCA); type: in vivo, Sprague-Dawley rats; settings: Rattus norvegicus, 1 h; rats, 2 × 10^-5 mole/kg dose per os, one hour before ovalbumin challenge; read-out: % inhibition of Passive cutaneous anaphylaxis (PCA)
Method: as §1
The PCA reaction is carried out following the methods described by Goose et al. (J.N. Immunology 16 (1969), 749) and by Martin et al. (Arch. Pharmacol. 316 (1981), 186).
The IgE-rich ovalbumin antiserum used in the test was obtained from immunized Brown-Norway rats. The were immunized with an intraperitoneal injection of a mixture of 100 μg of ovalbumin with a Bordetella pertussis suspension (Vaxicoq™, Manufactured by Institute Merieux, containing 5×10^9 organisms and 1.25 mg Al(OH)3). After 20 days the animals were re-immunized with a further intraperitoneal injection of a solution of 10 μg ovalbumin in 0.5 ml physiological saline solution. After a further four days the blood was removed from the animals and centrifuged. The resulting antiserum was stored at -20° C. until use.
as §2
Sprague-Dawley rats having a body weight of 150-180 g were injected intradermally in one flank with 50 μl of a 1:75 dilution of the IgE-rich ovalbumin antiserum in physiological saline solution to passively sensitize them to ovalbumin.
24 hours after sensitization a solution of 8.25 mg/kg of ovalbumin and 26.4 mg/kg of a blue dye (Evans's Blue) was administered to the rats intravenously according to Martin et al. to trigger passive cutaneous anaphylaxis.
as §3, §4, §5

[3] = system: 5-lipoxygenase (LTC4 release); experiment: 5-Lipoxygenase inhibition: LTC4 release from zymosan-stimulated mouse peritoneal macrophage cells; type: cell-based; settings: Peritoneal macrophage cell; zymosan-stimulated mouse peritoneal macrophage cells, 10^-5 mole/l; read-out: In vitro % inhibition upon release of LTC4
From the text: (§6) 5. In vitro Determination of Cyclooxygenase Inhibition and 5-Lipoxygenase Inhibition
(§7) After a cell is activated, arachidonic acid contained in cell membranes is metabolized in two ways. Leucotrienes, inter alia leucotriene C4, are formed due to the action of the enzyme 5-lipoxyqenase (=5-LO), and prostanoids are formed due to the action of the enzyme cyclooxygenase (=CO). In in vitro systems these metabolites are secreted from the cell.
(§8) To evaluate the cyclooxygenase-inhibiting and 5-lipoxygenase-inhibiting properties of the test substances, their inhibitory activity on the biosynthesis of the arachidonic acid derivatives leucotriene C4 (=LTC4) and 6-keto-prostaglandin F1α (=6-keto-PGF1 α) was determined in vitro on mouse peritoneal macrophage cells. For this purpose the LTC4 and 6-keto-PGF1 α contents of a mouse peritoneal macrophage cell culture medium were determined by zymosan stimulation as described by Scott et al. (J. Exp. Med. 152 (1980), 324-335) and by Fradin et al., (Prostaglandins, 33 (1987), 579-589).
(§9) A cell suspension containing peritoneal cells from male mice 8-10 weeks old was obtained in a known manner. A solution marketed under the designation RPMI 1640 (Manufactured by Gibco) was used as the cell culture medium, to which heparin (10 international units/ml) and antibiotics were added according to the procedure of Bonney et al. (Biochem. J. 176 (1978) 422-433). The cell suspension was adjusted to a cell concentration of 10^6 cells per ml and distributed uniformly on titer dishes containing 24 1-ml titer cells (wells). These were kept for two hours in a humidified incubator filled with air enriched with 7% CO2. Cells not adhering to the titer well walls were then removed by washing. The remaining macrophage cells adhering to the walls were incubated for about 12 hours in a suspension medium to which 0.1% of bovine serum albumin (BSA=Bovine Serum Albumin) was added. The suspension medium was then replaced by a Hanks salt solution (=Hanks Balanced Salt Solution=HBSS) with 10 mmoles of Hepes (=hydroxyethylpiperazinoethanesulfonic acid) to which a 0.1% strength solution of the test substances in aqueous, 1% strength dimethylformamide or only the solvent had been added. After 15 minutes the arachidonic acid metabolism was stimulated by adding […] of zymosan (=glycoprotein mixture isolated from cell walls of beer yeast, Saccharomyces cerevisiae, Manufactured by Sigma Chemical Co., Munich) per titre cell. After 2 hours samples of the respective supernatant liquid in each cell were examined for their 6-keto-PGF1α and LTC4 contents by an enzyme immunoassay (=EIA). This EIA is carried out following the method of Pradelles et al. (Analytical Chem. 57 (1985), 1170-1173). The determination of LTC4 and the determination of 6-keto-PGF1α were each carried out on suitable dilutions of the samples (1:50 to 1:250 for the LTC4 determination and 1:250 to 1:1,250 for the 6-keto-PGF1α determination) in comparison with a comparative scale. To determine the inhibiting effect of a 10^-5 molar concentration of the compounds, the amounts of reference eicosanoid were determined, and the inhibiting effect was calculated therefrom in % inhibition compared to the measurements of the zymosan controls.

[4] = system: cyclooxygenase (6-keto-PGF1α release); experiment: Cyclooxygenase inhibition: 6-keto-PGF1α release from zymosan-stimulated mouse peritoneal macrophage cells; type: cell-based; settings: Peritoneal macrophage cell; zymosan-stimulated mouse peritoneal macrophage cells, 10^-5 mole/l; read-out: In vitro % inhibition upon release of 6-keto-PGF1α
From the text: as §6, §7, §8, §9

O=C1Nc2ccccc2SC1CCCN1CCC(Nc2nc3ccccc3n2Cc2ccc(F)cc2)CC1 (centres unmarked) [Example 8]
inhibition in vivo at 20 µmol/kg [1]: 100% | Minimum toxic dose (mice): 300 mg/kg | inhibition in vivo at 20 µmol/kg [2]: 100% | inhibition at 10 µM [3]: 40% | inhibition at 10 µM [4]: 40%
